Reference: patent publication US8466145B2, “Dipeptidyl peptidase IV inhibitors” (Orchid Chemicals & Pharmaceuticals Limited, priority 2009, dated 2013)

Tests used:
DPP-IV = target: T1, DPP-IV (Homo sapiens, UniProt P27487); assay: DPP-IV inhibition, compounds screened by using human plasma; type: biochemical; details: screened by using human plasma (starred examples); for inhibition at 0.3 µM: 300 nM compound concentration
T1 construct: from tissue; host or cells: human plasma (per the earlier reading of the assay)
T1 sequence (P27487 39-766 limits assumed): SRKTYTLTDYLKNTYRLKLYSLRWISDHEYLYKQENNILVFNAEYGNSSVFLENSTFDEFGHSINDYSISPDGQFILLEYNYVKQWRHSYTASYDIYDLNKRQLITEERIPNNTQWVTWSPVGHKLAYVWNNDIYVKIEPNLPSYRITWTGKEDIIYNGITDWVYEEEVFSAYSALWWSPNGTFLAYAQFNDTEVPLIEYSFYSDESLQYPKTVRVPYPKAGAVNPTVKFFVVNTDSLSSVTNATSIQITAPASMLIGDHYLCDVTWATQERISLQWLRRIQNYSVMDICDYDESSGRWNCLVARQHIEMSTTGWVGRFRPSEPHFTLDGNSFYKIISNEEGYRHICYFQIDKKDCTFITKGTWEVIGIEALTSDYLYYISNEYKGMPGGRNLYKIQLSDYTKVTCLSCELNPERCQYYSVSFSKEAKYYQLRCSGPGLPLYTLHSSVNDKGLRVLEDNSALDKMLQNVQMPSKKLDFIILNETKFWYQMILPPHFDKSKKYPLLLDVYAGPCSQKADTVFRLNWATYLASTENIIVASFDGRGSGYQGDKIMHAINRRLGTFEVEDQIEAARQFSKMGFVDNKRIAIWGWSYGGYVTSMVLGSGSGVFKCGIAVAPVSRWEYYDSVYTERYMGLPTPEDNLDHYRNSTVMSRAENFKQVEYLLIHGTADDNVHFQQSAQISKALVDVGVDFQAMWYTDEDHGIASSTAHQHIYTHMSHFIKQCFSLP

| inhibition at 0.3 µM (DPP-IV) [%] | melting point [°C] | IC50 (DPP-IV) [µM] | Compound |
| --- | --- | --- | --- |
| 13.5 | 172 to 175 |  | CC1(C)[C@H](CS(=O)(=O)c2ccc(S(C)(=O)=O)cc2)CC[C@]1(C)NCC(=O)N1C[C@H](F)C[C@H]1C#N [Example 47, (2S,4R)-4-Fluoro-1-(2-((1S,3R)-1,2,2-trimethyl-3-((4-(methylsulfonyl)phenylsulfonyl)methyl)cyclopentylamino)acetyl)pyrrolidine-2-carbonitrile] |
|  | 160 to 163 | 0.422 | CC1(C)[C@H](c2nc(-c3ccc(F)cc3)no2)CC[C@]1(C)NCC(=O)N1C[C@@H](F)C[C@H]1C#N [Example 49, (2S,4S)-4-Fluoro-1-(2-((1S,3R)-3-(3-(4-fluorophenyl)-1,2,4-oxadiazol-5-yl)-1,2,2-trimethylcyclopentylamino)acetyl)pyrrolidine-2-carbonitrile] |
| 29.2 | 91 to 94 |  | CC(C)c1noc([C@H]2CC[C@@](C)(NCC(=O)N3C[C@@H](F)C[C@H]3C#N)C2(C)C)n1 [Example 52, (2S,4S)-4-Fluoro-1-(2-((1R,3S)-3-(3-isopropyl-1,2,4-oxadiazol-5-yl)-1,2,2-trimethylcyclopentylamino)acetyl)pyrrolidine-2-carbonitrile] |
| 13.4 | 74 to 79 |  | CN1C[C@]2(C)CC[C@](NCC(=O)N3C[C@H](F)C[C@H]3C#N)(C1)C2(C)C [Example 77, (2S,4R)-4-Fluoro-1-(2-((1R,5R)-3,5,8,8-tetramethyl-3-azabicyclo[3.2.1]octan-1-ylamino)acetyl)pyrrolidine-2-carbonitrile] |
